Reference: patent US7297714B2, “Inhibitors of cathepsin S” (IRM LLC, priority 2003, dated 2007)
pKi: −log10 of the molar value.

Experiments:
Assay type in all cases: biochemical
Cathepsin L = Cathepsin L (Homo sapiens, UniProt P07711); experiment: Cathepsin L inhibition assay, selectivity for cathepsin S over cathepsin L; settings: ratio of cathepsin L inhibition constant to cathepsin S inhibition constant
Description: (§1) The optimal substrate for cathepsin L, acetyl-histidine-lysine-phenylalanine-lysine-amino carbamoyl coumarin, was identified from screening a combinatorial library of fluorogenic peptide substrates (Harris, J. L., B. J. Backes, et al.; Proc Natl Acad Sci USA 2000, 97(14), 7754-9). Kinetic measurements are performed in a total reaction volume of 30 μl in 384-well microtiter plates. Cathepsin L, at a final concentration of 0.1 nM (active site), is incubated with the compounds at twelve varying concentrations in a buffer containing 100 mM NaAc (pH5.5), 1 mM EDTA, 100 mM NaCl, 0.01% Brij-35 for 20 minutes at room temperature. Control reactions in the absence of inhibitor are performed in replicates of 24. The reactions are initiated by adding the substrate, acetyl-histidine-lysine-phenylalanine-lysine-amino carbamoyl coumarin, to a final concentration of 20 μM. The rate of substrate hydrolysis is measured by monitoring the increase in fluorescence at an excitation wavelength of 380 nm and an emission wavelength of 450 nm that results from cleavage of the aniline bond in the substrate by the enzyme. The apparent inhibition constants for the compounds are determined from the enzyme progress curves (Kuzmic, P., K. C. Elrod, et al., Anal Biochem 2000, 286(1), 45-50) and are then used to calculate the inhibition constants for competitive inhibitors.
(§2) Selectivity for cathepsin S in the presence of cathepsin isozymes was determined by the ratio of the cathepsin isozyme inhibition constant of a compound of the present invention to the cathepsin S inhibition constant of the same compound. Preferred compounds of the present invention selective for cathepsin S have ratios of greater than 10. More preferred compounds of the present invention selective for cathepsin S have ratios of greater than 100. Most preferred compounds of the present invention selective for cathepsin S have ratios of greater than 1000.

Cathepsin B = Cathepsin B (Homo sapiens, UniProt P07858); experiment: Cathepsin B inhibition assay, selectivity for cathepsin S over cathepsin B; settings: ratio of cathepsin B inhibition constant to cathepsin S inhibition constant
Description: (§3) The optimal substrate for cathepsin B, acetyl-histidine-proline-valine-lysine-amino carbamoyl coumarin, was identified from screening a combinatorial library of fluorogenic peptide substrates (Harris, J. L., B. J. Backes, et al., Proc Natl Acad Sci US A 2000, 97(14), 7754-9). Kinetic measurements are performed in a total reaction volume of 30 μl in 384-well microtiter plates. Cathepsin B, at a final concentration of 1.5 nM (active site), is incubated with the compounds at twelve varying concentrations in a buffer containing 100 mM NaAc (pH5.5), 1 mM EDTA, 100 mM NaCl, 0.01% Brij-35 for 20 minutes at room temperature. Control reactions in the absence of inhibitor are performed in replicates of 24. The reactions are initiated by adding the substrate, acetyl-histidine-proline-valine-lysine-amino carbamoyl coumarin, to a final concentration of 10 μM. The rate of substrate hydrolysis is measured by monitoring the increase in fluorescence at an excitation wavelength of 380 nm and an emission wavelength of 450 nm that results from cleavage of the aniline bond in the substrate by the enzyme. The apparent inhibition constants for the compounds are determined from the enzyme progress curves (Kuzmic, P., K. C. Elrod, et al., Anal Biochem 2000, 286(1), 45-50) and are then used to calculate the inhibition constants for competitive inhibitors.
as §2

Cathepsin K = molecular target: T1, Cathepsin K (Homo sapiens, UniProt P43235); experiment: Cathepsin K inhibition assay, selectivity for cathepsin S over cathepsin K; settings: ratio of cathepsin K inhibition constant to cathepsin S inhibition constant
T1 sequence (P43235 115-329): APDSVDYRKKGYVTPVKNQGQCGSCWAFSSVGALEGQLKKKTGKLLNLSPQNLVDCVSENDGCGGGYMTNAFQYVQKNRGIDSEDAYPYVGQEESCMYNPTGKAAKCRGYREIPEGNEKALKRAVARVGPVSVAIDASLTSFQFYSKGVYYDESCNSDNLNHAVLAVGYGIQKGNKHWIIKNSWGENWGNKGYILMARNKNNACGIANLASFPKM
Description: as §1, with “cathepsin K, acetyl-lysine-histidine-proline-lysine-amino” for “cathepsin L, acetyl-histidine-lysine-phenylalanine-lysine-amino”, “et al.,” for “et al.;”, “Cathepsin K,” for “Cathepsin L,”, “of 3.5” for “of 0.1”, “substrate, acetyl-lysine-histidine-proline-lysine-amino” for “substrate, acetyl-histidine-lysine-phenylalanine-lysine-amino”, “of 40” for “of 20”
as §2

Cathepsin S = Cathepsin S (Homo sapiens, UniProt P25774); experiment: Cathepsin S inhibition assay (fluorogenic peptide substrate); settings: Cathepsin S inhibition constant; pH5.5; read-out: Ki Cat. S
Excerpt: “Inhibition constant”, Ki, is the dissociation constant of the enzyme-inhibitor complex, or the reciprocal of the binding affinity of the inhibitor to the enzyme. For classical inhibition the value of Ki is much greater than the enzyme concentration and the Ki can be measured by monitoring the rate of reaction for a competitive substrate at multiple inhibitor concentrations. The inhibited rates are then fit by nonlinear regression to the following equation: […]
The assumption being made for the classical inhibition described above is that the free inhibitor concentration is equal to the total inhibitor concentration. For inhibitors that have Ki's that are approximately equal to the enzyme concentration [E], the assumption that the free inhibitor concentration is equal to the total inhibitor concentration is no longer valid and an alternative equation has to be fit for determination of the apparent inhibition constant, Ki^app using described methods (Kuzmic, P., K. C. Elrod, et al., Anal Biochem 2000, 286(1), 45-50):
as §3, with “cathepsin S,” for “cathepsin B,”, “Sci U S” for “Sci US”, “Cathepsin S,” for “Cathepsin B,”, “of 0.3-3” for “of 1.5”, “of 50” for “of 10”

Sequence of Cathepsin L (P07711 114-333, species assumed): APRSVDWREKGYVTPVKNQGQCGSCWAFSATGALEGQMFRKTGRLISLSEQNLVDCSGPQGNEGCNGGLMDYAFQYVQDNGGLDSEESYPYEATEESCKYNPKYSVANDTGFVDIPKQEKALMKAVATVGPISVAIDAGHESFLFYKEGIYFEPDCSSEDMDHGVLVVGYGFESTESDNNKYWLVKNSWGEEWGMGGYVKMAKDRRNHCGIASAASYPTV
Sequence of Cathepsin S (P25774 115-331, species assumed): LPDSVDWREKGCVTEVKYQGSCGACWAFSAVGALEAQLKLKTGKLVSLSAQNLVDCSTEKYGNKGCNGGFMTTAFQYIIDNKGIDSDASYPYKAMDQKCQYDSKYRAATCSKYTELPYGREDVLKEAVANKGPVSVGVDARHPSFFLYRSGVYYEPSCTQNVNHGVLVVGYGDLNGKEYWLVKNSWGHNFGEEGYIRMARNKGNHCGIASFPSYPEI

Compound	Selectivity for Cat. S over Cat. L (Cathepsin L)	Selectivity for Cat. S over Cat. B (Cathepsin B)	Selectivity for Cat. S over Cat. K (Cathepsin K)	pKi (Cathepsin S)
CC(C)(C)C[C@H](NC(=O)C1CC1)C(=O)N[C@H]1CC(=O)OC1O (stereo partly drawn) [Example 22, (3S)-((2S)-(cyclopropylcarbonylamino)-4,4-dimethyl-pentanoylamino)-4-oxo-butyric acid]	+++ (+++, >1000)	+++ (+++, >1000)	+ (+, >10)	> 7.00
O=C1C[C@H](NC(=O)[C@H](CC2CCCC2)NC(=O)c2ccc(-c3cccc(C(F)(F)F)c3)o2)C(O)O1 (stereo partly drawn) [Example 23, (3S)-(3-Cyclopentyl-(2S)-{[5-(3-trifluoromethyl-phenyl)-furan-2-carbonyl]-amino}-propionylamino)-4-oxo-butyric acid]	+++ (+++, >1000)	+++ (+++, >1000)	++ (++, >100)	> 7.00
O=C1C[C@H](NC(=O)[C@H](CC2CCCC2)NC(=O)c2cccc(C(F)(F)F)c2)C(O)O1 (stereo partly drawn) [Example 24, (3S)-(3-Cyclopentyl-(2S)-(3-trifluoromethylphenyl-carbonylamino)-propionylamino)-4-oxo-butyric acid]	+ (+, >10)	+++ (+++, >1000)	++ (++, >100)	> 7.00
O=C1CC(NC(=O)C(CC2CCCC2)NC(=O)c2ccc(-c3cccc(F)c3)o2)C(OC2CCCC2)O1 [Example 26, (3S)-[3-Cyclopentyl-(2S)-{[5-(3-fluoro-phenyl)-furan-2-carbonyl]-amino}propionylamino]-2-cyclopentoxy-5-oxo-tetrahydrofuran]	+++ (+++, >1000)	+++ (+++, >1000)	+ (+, >10)	> 7.00
